One test concerns the target T1, human liver cathepsin B (Homo sapiens, UniProt P07858).
T1 construct: purchased Sigma; host or cells: human liver (by name)
As to the kind of experiment: Specificity assay, cathepsin B. The test is classed as biochemical. Conditions: 2 h enzyme-inhibitor pre-incubation. The protocol:
The specificities of compounds of the present disclosure were determined against a variety of serine proteases: human neutrophil elastase (HNE), porcine pancreatic elastase (PPE) and human pancreatic chymotrypsin and one cysteine protease: human liver cathepsin B. In all cases a 96-well plate format protocol using colorimetric p-nitroaniline (pNA) substrate specific for each enzyme was used as described previously (PCT Patent Application No. WO 00/09543) with some modifications to the serine protease assays. All enzymes were purchased from Sigma while the substrates were from Bachem.
Each assay included a 2 h enzyme-inhibitor pre-incubation at room temperature followed by addition of substrate and hydrolysis to ˜30% conversion as measured on a Spectramax Pro microplate reader. Compound concentrations varied from 100 to 0.4 μM depending on their potency.
100 mM NaHPO4 (Sodium Hydrogen Phosphate) pH 6, 0.1 mM EDTA, 3% DMSO, 1 mM TCEP (Tris(2-carboxyethyl)phosphine hydrochloride), 0.01% Tween-20, 30 μM Z-FR-pNA and 5 nM Cathepsin B (enzyme stock activated in buffer containing 20 mM TCEP before use).
The percentage of inhibition was calculated using the formula: [1−((UVinh−UVblank)/(UVctl−UVblank))]×100
A non-linear curve fit was applied to the inhibition-concentration data, and the 50% effective concentration (IC50) was calculated by the use of Excel Xl-fit software.

Test [1] concerns HCV replicon in HUH-7 cells. As to the kind of experiment: HCV replicon FRET assay. It is filed as cell-based, HCV strain 1b. The following applies: Hepatitis C virus. The text has this: An HCV replicon whole cell system was established as described by Lohmann V, Korner F, Koch J, Herian U, Theilmann L, Bartenschlager R., Science 285(5424): 110-3 (1999). This system enabled us to evaluate the effects of our HCV Protease compounds on HCV RNA replication. Briefly, using the HCV strain 1b sequence described in the Lohmann paper (Assession number: AJ238799), an HCV cDNA was synthesized by Operon Technologies, Inc. (Alameda, Calif.), and the full-length replicon was then assembled in plasmid pGem9zf(+) (Promega, Madison, Wis.) using standard molecular biology techniques. The replicon consists of (i) the HCV 5′ UTR fused to the first 12 amino acids of the capsid protein, (ii) the neomycin phosphotransferase gene (neo), (iii) the IRES from encephalomyocarditis virus (EMCV), and (iv) HCV NS3 to NS5B genes and the HCV 3′ UTR. Plasmid DNAs were linearized with ScaI and RNA transcripts were synthesized in vitro using the T7 MegaScript transcription kit (Ambion, Austin, Tex.) according to manufacturer's directions. In vitro transcripts of the cDNA were transfected into the human hepatoma cell line, HUH-7. […] Resulting cell lines were characterized for positive and negative strand RNA production and protein production over time.
The HCV replicon FRET assay was developed to monitor the inhibitory effects of compounds described in the disclosure on HCV viral replication. HUH-7 cells, constitutively expressing the HCV replicon, were grown in Dulbecco's Modified Eagle Media (DMEM) (Gibco-BRL) containing 10% Fetal calf serum (FCS) (Sigma) and 1 mg/ml G418 (Gibco-BRL). Cells were seeded the night before (1.5×10^4 cells/well) in 96-well tissue-culture sterile plates. Compound and no compound controls were prepared in DMEM containing 4% FCS, 1:100 Penicillin/Streptomysin (Gibco-BRL), 1:100 L-glutamine and 5% DMSO in the dilution plate (0.5% DMSO final concentration in the assay). Compound/DMSO mixes were added to the cells and incubated for 4 days at 37° C. After 4 days, cells were first assessed for cytotoxicity using alamar Blue (Trek Diagnotstic Systems) for a CC50 reading. The toxicity of compound (CC50) was determined by adding 1/10th volume of alamar Blue to the media incubating the cells. After 4 h, the fluorescence signal from each well was read, with an excitation wavelength at 530 nm and an emission wavelength of 580 nm, using the Cytofluor Series 4000 (Perspective Biosystems). Plates were then rinsed thoroughly with Phosphate-Buffered Saline (PBS) (3 times 150 μl). The cells were lysed with 25 μl of a lysis assay reagent containing an HCV protease substrate (5× cell Luciferase cell culture lysis reagent (Promega #E153A) diluted to 1× with distilled water, NaCl added to 150 mM final, the FRET peptide substrate (as described for the enzyme assay above) diluted to 10 μM final from a 2 mM stock in 100% DMSO. The plate was then placed into the Cytofluor 4000 instrument which had been set to 340 nm excitation/490 nm emission, automatic mode for 21 cycles and the plate read in a kinetic mode. EC50 determinations were carried out as described for the IC50 determinations.
(In general: A replicon is a self-replicating genome or part of one, used to study replication in cells.)

Where two headings read alike, the source gives them in different places. A value given as a limit tells only on which side of the number the result lay.

Usually IC50 stands for the concentration that gives 50% inhibition. A low value points to higher potency. Broadly, the EC50 is the concentration needed to bring the measured effect to its halfway point. As to `C=C[C@@H]1C[C@]1(NC(=O)[C@@H]1C[C@@H](OC(=O)c2ccccc2)CN1C(=O)[C@@H](NC(=O)OC(C)(C)C)C(C)(C)C)C(=O)NS(=O)(=O)C1CC1` [Compound 1], the IC50 on human liver cathepsin B was > 50000 nM. The EC50 is 484 nM in test [1] (96 h, HUH-7 replicon cells, 4 days, read-out: EC50 in the replicon FRET assay) and 200 to 1000 nM in test [1] (Huh-7, read-out: Activity Range (EC50)).

Source of the values: US7935670B2, “Hepatitis C virus inhibitors” (Bristol-Myers Squibb Company, priority 2006, dated 2011).
